The source of these data is patent publication EP2540303A1, “Divalent cation containing compositions and methods for treating and/or preventing enzymatic irritation” (Johnson & Johnson Consumer Companies Inc., priority 2011, dated 2013).

Several values for one entry are separate records, joined by “and”; a condition that tells them apart may be missing. Identical values can stand only once.

For experiment [1], the target named is T1, trypsin (Bos taurus, UniProt P00760).
T1 sequence (P00760 24-246): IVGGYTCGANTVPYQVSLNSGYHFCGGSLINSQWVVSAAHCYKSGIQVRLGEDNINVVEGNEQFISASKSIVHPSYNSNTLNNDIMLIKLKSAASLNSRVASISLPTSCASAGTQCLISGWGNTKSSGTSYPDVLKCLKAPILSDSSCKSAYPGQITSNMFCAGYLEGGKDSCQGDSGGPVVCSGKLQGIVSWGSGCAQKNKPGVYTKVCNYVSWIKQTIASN
As to conditions: at low concentrations, i.e., around 0.001 M; cited from earlier work.

The test system of experiment [2] is trypsin. As to the kind of experiment: Trypsin inhibition (EnzChek protease assay kit), divalent cation salts with and without talc. In kind it is biochemical. As to conditions: for % synergistic activity relative to hypothetic additive value: (with talc value minus additive value) divided by additive value; for Salt alone trypsin inhibition activities (%): no talc. As for the experimental part:
(§1) The objective of the following experiment was to determine whether and to what extent adding a divalent cation to talc inhibited trypsin activity in an in vitro assay. The inhibition of trypsin-induced cleavage of a fluorescent casein peptide was measured using the EnzChek™ protease assay kit, following manufacturer's instructions (EnzChek™ Protease Assay Kits Product Information, Revised; Molecular Probes, Eugene OR). […] Trypsin working solution (Sigma, St. Louis, MO, unit/mL) was prepared in a portion of the digestion buffer provided in the assay kit (the digestion buffer provided in the assay kit comprises, in total, 260mL of 200nM Tris-HCl, pH7.8, containing 40mM sodium azide). Stock solution of BODIPY FL casein (the trypsin substrate, comprising a casein derivative labeled with a pH-insensitive green fluorescent protein, mg/mL) was prepared by adding 0.2 mL of phosphate buffered saline (PBS) to the substrate vials provided in kit, allowing sufficient time at room temperature for the substrate to dissolve fully (each substrate vial provided in the kit contains 200µg of BODIPY FL casein lyophilized from phosphate-buffered saline (PBS)). The final substrate working solution (10 microgram/mL) was prepared by dilution of 0.2 mL of the stock solution of BODIPY FL with 19.8 mL of digestion buffer (pH 7.8). To detect enzyme activity, 100µL of the BODIPY FL casein working solution was added to 50µL of trypsin working solution (containing 100U of trypsin) and 50µl of the solution of the required test material (if required) . Following incubation of the trypsin, with or without the test materials, with the BODIPY fluorescent casein substrate, at room temperature for one hour, fluorescence was measured (excitation 485 nm /emission 530 nm) using a SpectraMax microtiter plate reader (Molecular Devices Corporation, Sunnyvale, CA) and Softmax Pro software (Molecular Devices Corporation). Each experiment was performed in three replicates. The percentage activity is quoted with comparison to results obtained from the assay performed without the addition of a test substrate.

In experiment [3] the test system is trypsin. As to the kind of experiment: Inhibition of trypsin-induced cleavage of fluorescent casein (EnzChek protease assay kit), salts in PBS. In kind it is biochemical. The settings on record: acetate monohydrate. The protocol: as §1, with “The” for “The objective of the following experiment was to determine whether and to what extent adding a divalent cation to talc inhibited trypsin activity in an in vitro assay. The”, “Following incubation of the trypsin, with or without the test materials, with the BODIPY fluorescent casein substrate, at room temperature for one hour, fluorescence was measured (excitation 485 nm /emission 530 nm) using a SpectraMax microtiter plate reader (Molecular Devices Corporation, Sunnyvale, CA) and Softmax Pro software (Molecular Devices Corporation). Each experiment was performed in three replicates. The percentage activity is quoted with comparison to results obtained from the assay performed without the addition of a test substrate.” left out

In experiment [4] the test system is trypsin. As to the kind of experiment: Trypsin inhibition (EnzChek protease assay kit), zinc oxide/acid mixtures and zinc oxide containing formulations. In kind it is biochemical. The settings on record: Table 5. The protocol: The objective of the following experiment was to determine whether and to what extent adding an acid to a formulation containing zinc oxide had on inhibition of trypsin activity in an in vitro assay. The inhibition of trypsin-induced cleavage of a fluorescent casein peptide was measured using the EnzChek^TM protease assay kit, following manufacturer's instructions (EnzChek^TM Protease Assay Kits Product Information, Revised; Molecular Probes, Eugene OR). Mixtures of zinc oxide and acid at different concentrations were prepared in lx PBS (pH 7.4) and their pH was recorded as listed in the Tables 5-8. Trypsin working solution (Sigma, St. Louis, MO, unit/mL) was prepared in a portion of the digestion buffer provided in the assay kit (the digestion buffer provided in the assay kit comprises, in total, 260mL of 200nM Tris-HCl, pH7.8, containing 40mM sodium azide). Stock solution of BODIPY FL casein (the trypsin substrate, comprising a casein derivative labeled with a pH-insensitive green fluorescent proten, mg/mL) was prepared by adding 0.2 mL of phosphate buffered saline (PBS) to the substrate vials provided in kit, allowing sufficient time at room temperature for the substrate to dissolve fully (each substrate vial provided in the kit contains 200µg of BODIPY FL casein lyophilized from phosphate-buffered saline (PBS)). The final substrate working solution (10 microgram/mL) was prepared by dilution of 0.2 mL of the stock solution of BODIPY FL with 19.8 mL of digestion buffer (pH 7.8). To detect enzyme activity, 100µL of the BODIPY FL casein working solution was added to 50µL of trypsin working solution (containing 100U of trypsin) and 50 µl of the solution of the required test material (if required). Following incubation of the trypsin, with or without the test materials (50 µl), with the BODIPY fluorescent casein substrate, at room temperature for one hour, fluorescence was measured (excitation 485 nm /emission 530 nm) using a SpectraMax microtiter plate reader (Molecular Devices Corporation, Sunnyvale, CA) and Softmax Pro software (Molecular Devices Corporation). Each experiment was performed in three replicates.
For preparations, samples were diluted in lx PBS at 1:10 ratio and subjected to centrifugation at 13,200 rpm for 1 min using Eppendorf Centrifuge (Model 5415D, Eppendorf AG, Hamburg, Germany) to remove the solid formulation ingredients. The supernatants (50 µl) were used for trypsin inhibitory activity analyses as described above. For preparations, samples were diluted in 10, or 20 or 40 % ethanol and subjected to centrifugation at 13,200 rpm for 1 min using Eppendorf Centrifuge (Model 5415D, Eppendorf AG, Hamburg, Germany) to remove the solid formulation ingredients. The supernatants (50 µl) were used for trypsin inhibition assay. […] The percentage activity is quoted with comparison to results obtained from the assay performed without the addition of a test substrate.
For the above study, the results are an average of three independent experiments, wherein the samples, which were diluted at 1:10 ratio in lx PBS solutions containing 10%, 20% or 40% ethanol, were tested in triplicates.

The mark [5] stands for this setting: Table 3, salt alone plus talc alone (8.55%), all at 0.1% (g/mL).
The mark [6] stands for this setting: Table 4, 0.1% MgCl2 and 1% talc.
Where [7] appears, read: Table 4, 0.5% MgCl2 and 1% talc.

For `[Ag+]` [Ag+], the “inhibition of the esterase activity of trypsin” value (“inhibition … of trypsin” for short) at trypsin [1] is “inhibited the esterase activity of trypsin”.
With `CC(=O)[O-].CC(=O)[O-].O.[Ca+2]` [Calcium acetate monohydrate], the “% synergistic activity relative to hypothetic additive value” with trypsin [2] (Table 3, all at 0.1% (g/mL)) was 3.10%. For the same compound, the “Salt alone trypsin inhibition activities (%)” value with trypsin [2] (Table 3, salt 0.1% (g/mL)) is given as 15.31%. In addition, the “Hypothetically calculated additive value of salt and Talc trypsin inhibition activities (%)” value in the experiment on trypsin [2] (setting [5]) is 23.86%.
In the same order, the values of `[Ca+2].[Cl-].[Cl-]` [Calcium chloride] are -0.26%, 17.95% and 26.50%.
Regarding `CC(=O)[O-].CC(=O)[O-].O.[Cu+2]` [Copper (II) acetate monohydrate], in the experiment on trypsin [3], the “% Trypsin inhibitory activity” value is 66.53% and 95.17%.
Consider `[Cu+2]` [Cu++], for which the “inhibition … of trypsin” value on trypsin [1] is “inhibited the esterase activity of trypsin”.
For `[Hg+2]` [Hg++], on trypsin [1], the “inhibition … of trypsin” value is “inhibited the esterase activity of trypsin”.
Regarding `O.O.O.O.[Cl][Fe][Cl]` [Iron (II) chloride tetrahydrate], the “% synergistic activity relative to hypothetic additive value” with trypsin [2] (Table 3, all at 0.1% (g/mL)) was -12.35%. In addition, the “Salt alone trypsin inhibition activities (%)” value with trypsin [2] (Table 3, salt 0.1% (g/mL)) is recorded as 65.07%. In the experiment on trypsin [2] (setting [5]), the “Hypothetically calculated additive value of salt and Talc trypsin inhibition activities (%)” value was 73.62%.
As for `CC(=O)[O-].CC(=O)[O-].O.O.O.O.[Mg+2]` [Magnesium acetate tetrahydrate], the “% synergistic activity relative to hypothetic additive value” with trypsin [2] (Table 3, all at 0.1% (g/mL)) stood at 90.09%. In addition, the “Salt alone trypsin inhibition activities (%)” value with trypsin [2] (Table 3, salt 0.1% (g/mL)) came out at 0.83%. The “Hypothetically calculated additive value of salt and Talc trypsin inhibition activities (%)” value with trypsin [2] (setting [5]) is given as 9.38%.
As to `[Cl-].[Cl-].[Mg+2]` [Magnesium chloride], the “% synergistic activity relative to hypothetic additive value” in the experiment on trypsin [2] (Table 3, all at 0.1% (g/mL)) is 50.75%. The “Salt alone trypsin inhibition activities (%)” value with trypsin [2] (Table 3, salt 0.1% (g/mL)) came out at 4.75%; with trypsin [2] (Table 4, 0.1% MgCl2 (g/mL)), 9.02%; in the experiment with trypsin [2] (Table 4, 0.5% MgCl2 (g/mL)), 19.51%; in the experiment with trypsin [2] (Table 4, 1% MgCl2 (g/mL)) it was 22.13%. In addition, the “Hypothetically calculated additive value of salt and Talc trypsin inhibition activities (%)” value in the experiment with trypsin [2] (setting [5]) is 13.30%; in the experiment on trypsin [2] (setting [6]), 12.44%; with trypsin [2] (setting [7]), 22.93%; in the experiment on trypsin [2] (Table 4, 1% MgCl2 and 1% talc), 25.55%. The “With 1% Talc trypsin inhibition activities (%)” value in the experiment with trypsin [2] (Table 4, 0.1% MgCl2 (g/mL) with 1% talc) is 25.43%; with trypsin [2] (Table 4, 0.5% MgCl2 (g/mL) with 1% talc) it was 32.84%; in the experiment with trypsin [2] (Table 4, 1% MgCl2 (g/mL) with 1% talc) it was 40.42%. The “% synergistic activity relative to hypothetical additive value” in the experiment on trypsin [2] (setting [6]) was found to be 104.42%; in the experiment with trypsin [2] (setting [7]), 43.22%; in the experiment on trypsin [2] (Table 4, 1% MgCl2 and 1% talc) it was 58.20%. In the experiment on trypsin [2] (combination of talc and magnesium chloride), the “trypsin inhibition (in words)” value is listed as “synergistic increase in trypsin inhibition”. Moreover, in the experiment on trypsin [2] (talc or magnesium chloride alone), the “trypsin inhibitory activity (in words)” value was “moderate to low levels of trypsin inhibitory activity”.
For the compound `CC(=O)[O-].CC(=O)[O-].[Zn+2]` [Zinc acetate dihydrate], in the experiment on trypsin [2] (Table 3, all at 0.1% (g/mL)), the “% synergistic activity relative to hypothetic additive value” is listed as -15.70%. Besides, the “Salt alone trypsin inhibition activities (%)” value in the experiment with trypsin [2] (Table 3, salt 0.1% (g/mL)) was 62.84%. For the same compound, in the experiment with trypsin [2] (setting [5]), the “Hypothetically calculated additive value of salt and Talc trypsin inhibition activities (%)” value is 71.39%.
In the same order, the values of `[Cl-].[Cl-].[Zn+2]` [Zinc chloride] are -13.01%, 81.07% and 89.62%.
Consider `[Zn+2]` [Zn++], for which the “inhibition … of trypsin” value at trypsin [1] is “to a lesser extent”.
Take `[O]=[Zn]` [ZnO, zinc oxide]: the “% Trypsin inhibitory activity” value in the experiment with trypsin [4] (0.1% ZnO, 0.01 % acetic acid, pH 7.28) was 1.85+/-1.34%; in the experiment on trypsin [4] (0.1% ZnO, 0.05% acetic acid, pH 6.03), 49.16+/-1.43%; in the experiment with trypsin [4] (0.1% ZnO, No acetic acid, pH 7.61), -2.6+/-2.76%; with trypsin [4] (1% ZnO, 0.01 % acetic acid, pH 7.85), 15.82+/-1.68%; in the experiment on trypsin [4] (1% ZnO, 0.05% acetic acid, pH 6.08) it was 58.19+/-0.73%; in the experiment on trypsin [4] (1% ZnO, No acetic acid, pH 8.07), 5.40 +/- 1.24%. Further, the “trypsin inhibitory activity (in words)” value in the experiment on trypsin [4] (mixtures of zinc oxide and acetic acid) is “have trypsin inhibitory activity, which is dose-dependent”. Besides, in the experiment with trypsin [4] (zinc oxide without acid), the “protease activity (in words)” value is “minimal protease activity”.
As for `CC(=O)O` [acetic acid], the “% Trypsin inhibitory activity” value in the experiment with trypsin [4] (No ZnO, 0.01 % acetic acid, pH 6.84) is recorded as -11.18+/-2.61%; in the experiment with trypsin [4] (No ZnO, 0.05% acetic acid, pH 4.75) it was 25.81+/-2.13%.
